Reference: patent US20220192195A1, “HERBICIDAL COMPOSITIONS” (SYNGENTA CROP PROTECTION AG, priority 2019, published 2022)

Tests used:
Experiment in all cases: Post-emergence efficacy (B1), compounds of Formula (I) alone, evaluated after 13 days
Type in all cases: in vivo
Eleusine indica (ELEIN) = settings: 500 g/Ha, post-emergence spray
Experimental: (§1) Seeds of a variety of test species were sown in standard laom-based soil in pots: Ipomoea hederacea (IPOHE), Euphorbia heterophylla (EPHHL), Chenopodium album (CHEAL), Amaranthus palmeri (AMAPA), Lolium perenne (LOLPE), Digitaria sanguinalis (DIGSA), Eleusine indica (ELEIN), Echinochloa crus-galli (ECHCG), Setaria faberi (SETFA). After cultivation for 14 days (post-emergence) under controlled conditions in a glasshouse (at 24/16° C., day/night; 14 hours light; 65% humidity), the plants were sprayed with an aqueous spray solution derived from the dissolution of the technical active ingredient Formula (I) in a small amount of acetone and a special solvent and emulsifier mixture referred to as IF50 (11.12% Emulsogen EL360 TM+44.44% N-methylpyrrolidone+44.44% Dowanol DPM glycol ether), to create a 50 g/I solution which was then diluted to required concentration using 0.25% or 1% Empicol ESC70 (Sodium lauryl ether sulphate)+1% ammonium sulphate as diluent. The delivery of the aqueous spray solution was via a laboratory track sprayer which delivered the aqueous spray composition at a rate of 200 litres per hectare, using a flat fan nozzle (Teejet 11002VS) and an application volume of 200 litre/ha (at 2 bar).
(§2) The test plants were then grown in a glasshouse under controlled conditions (at 24/16° C., day/night; 14 hours light; 65% humidity) and watered twice daily. After 13 days the test was evaluated (100=total damage to plant; 0=no damage to plant).

[1] = test system: Euphorbia heterophylla (EPHHL); settings: 500 g/Ha, post-emergence spray
Experimental: as §1, §2

[2] = test system: Chenopodium album (CHEAL); settings: 500 g/Ha, post-emergence spray
Experimental: as §1, §2

[3] = test system: Amaranthus palmeri (AMAPA); settings: 500 g/Ha, post-emergence spray
Experimental: as §1, §2

Lolium perenne (LOLPE) = settings: 312 h, post-emergence spray, read-out: Control of weed species after post-emergence application: LOLPE (100=total damage to plant; 0=no damage to plant)
Experimental: as §1, §2

[4] = test system: Echinochloa crus-galli (ECHCG); settings: 312 h, post-emergence spray, read-out: Control of weed species after post-emergence application: ECHCG (100=total damage to plant; 0=no damage to plant)
Experimental: as §1, §2

[5] = test system: Digitaria sanguinalis (DIGSA); settings: 312 h, post-emergence spray, read-out: Control of weed species after post-emergence application: DIGSA (100=total damage to plant; 0=no damage to plant)
Experimental: as §1, §2

[6] = test system: Ipomoea hederacea (IPOHE); settings: 312 h, post-emergence spray, read-out: Control of weed species after post-emergence application: IPOHE (100=total damage to plant; 0=no damage to plant)
Experimental: as §1, §2

Setaria faberi (SETFA) = settings: 312 h, post-emergence spray, read-out: Control of weed species after post-emergence application: SETFA (100=total damage to plant; 0=no damage to plant)
Experimental: as §1, §2

N[C@H](CC[n+]1ccc(-c2ncccn2)cn1)C(=O)O.O=C(O)C(F)(F)F.O=C([O-])C(F)(F)F [Compound 1.029, [(1R)-1-carboxy-3-(4-pyrimidin-2-ylpyridazin-1-ium-1-yl)propyl]-ammonium 2,2,2-trifluoroacetate]
Control of weed species after post-emergence application: ELEIN (100=total damage to plant; 0=no damage to plant) (Eleusine indica (ELEIN)): 100
Control of weed species after post-emergence application: EPHHL (100=total damage to plant; 0=no damage to plant) [1]: 90
Control of weed species after post-emergence application: CHEAL (100=total damage to plant; 0=no damage to plant) [2]: 100
Control of weed species after post-emergence application: AMAPA (100=total damage to plant; 0=no damage to plant) [3]: 100

N[C@@H](CC[n+]1ccc(-c2ncccn2)cn1)C(=O)O.O=C(O)C(F)(F)F.O=C([O-])C(F)(F)F [Compound 1.035, [(1S)-1-carboxy-3-(4-pyrimidin-2-ylpyridazin-1-ium-1-yl)propyl]-ammonium 2,2,2-trifluoroacetate]
Control of weed species after post-emergence application: ELEIN (100=total damage to plant; 0=no damage to plant) (Eleusine indica (ELEIN)): 100
Control of weed species after post-emergence application: EPHHL (100=total damage to plant; 0=no damage to plant) [1]: 90
pest or weed control at 500 g/ha (Lolium perenne (LOLPE)): 20%
pest or weed control at 500 g/ha [4]: 60%
pest or weed control at 500 g/ha [5]: 90%
Control of weed species after post-emergence application: CHEAL (100=total damage to plant; 0=no damage to plant) [2]: 100
pest or weed control at 500 g/ha [6]: 90%
pest or weed control at 500 g/ha (Setaria faberi (SETFA)): 100%
Control of weed species after post-emergence application: AMAPA (100=total damage to plant; 0=no damage to plant) [3]: 100
